Data published in patent US5416222A, “3-pyrrolidine methanamines wherein the alpha-carbon is substituted by 1 or 2 lower alkyl groups which are intermediates for pyridone-carboxylic acid derivatives” (Daiichi Seiyaku Co., Ltd., priority 1985, dated 1995).
In brackets after ≈: the same amount, converted by molar mass.

Key:
Assay in all cases: antimicrobial activity, MIC, standard process of Japan Society of Chemotherapy
Assay type in all cases: cell-based
[1] = test system: E. coli, NIHJ; settings: for MIC: Escherichia coli, read-out: minimum growth inhibitory concentration (MIC)
Procedure: (§1) The antimicrobial activities of the compounds of the present invention were determined according to a standard process designated by the Japan Society of Chemotherapy and the minimum growth inhibitory concentrations (MIC) (μg/ml) the compounds were determined.

[2] = test system: Pr. mirabilis, IF03849; settings: for MIC: Proteus mirabilis, IF03849, Pr. mirabilis, read-out: minimum growth inhibitory concentration (MIC); for minimum growth inhibitory concentration (MIC): Pr. mirabilis
Procedure: as §1

[3] = test system: Pr. vulgaris, 3167; settings: for MIC: Proteus vulgaris, 3167, Pr. vulgaris, read-out: minimum growth inhibitory concentration (MIC); for minimum growth inhibitory concentration (MIC): Pr. vulgaris
Procedure: as §1

[4] = test system: Ps. aeruginosa, 2063; settings: for minimum growth inhibitory concentration (MIC): Ps. aeruginosa; for MIC: Pseudomonas aeruginosa, 2063, Ps. aeruginosa, read-out: minimum growth inhibitory concentration (MIC)
Procedure: as §1

[5] = test system: Ps. aeruginosa, 2128; settings: for minimum growth inhibitory concentration (MIC): Ps. aeruginosa; for MIC: Pseudomonas aeruginosa, 2128, Ps. aeruginosa, read-out: minimum growth inhibitory concentration (MIC)
Procedure: as §1

[6] = test system: Ps. cepacia, IID1340; settings: for MIC: Burkholderia cepacia, IID1340, Ps. cepacia, read-out: minimum growth inhibitory concentration (MIC); for minimum growth inhibitory concentration (MIC): Ps. cepacia
Procedure: as §1

[7] = test system: Ps. maltophilia, IID1275; settings: for MIC: Stenotrophomonas maltophilia, IID1275, Ps. maltophilia, read-out: minimum growth inhibitory concentration (MIC); for minimum growth inhibitory concentration (MIC): Ps. maltophilia
Procedure: as §1

[8] = test system: S. aureus, 209P; settings: for MIC: Staphylococcus aureus, read-out: minimum growth inhibitory concentration (MIC)
Procedure: as §1

[9] = test system: S. epidermidis, 56500; settings: for MIC: Staphylococcus epidermidis, 56500, S. epidermidis, read-out: minimum growth inhibitory concentration (MIC); for minimum growth inhibitory concentration (MIC): S. epidermidis
Procedure: as §1

[10] = test system: Ser. marcescens, 13001; settings: for minimum growth inhibitory concentration (MIC): Ser. marcescens; for MIC: Serratia marcescens, 13001, Ser. marcescens, read-out: minimum growth inhibitory concentration (MIC)
Procedure: as §1

[11] = test system: Sh. flexneri, 2a5503; settings: for MIC: Shigella flexneri, read-out: minimum growth inhibitory concentration (MIC)
Procedure: as §1

[12] = test system: Str. faecalis, ATCC 19433; settings: for MIC: Enterococcus faecalis, ATCC19433, Str. faecalis, read-out: minimum growth inhibitory concentration (MIC); for minimum growth inhibitory concentration (MIC): Str. faecalis
Procedure: as §1

[13] = test system: Str. pyogenes, G-36; settings: for MIC: Streptococcus pyogenes, G36, Str. pyogenes, read-out: minimum growth inhibitory concentration (MIC); for minimum growth inhibitory concentration (MIC): Str. pyogenes
Procedure: as §1

| Compound | MIC [1] [µg/mL] | MIC [2] [µg/mL] | MIC [3] [µg/mL] | minimum growth inhibitory concentration (MIC) [4] [µg/mL] | minimum growth inhibitory concentration (MIC) [5] [µg/mL] | MIC [6] [µg/mL] | MIC [7] [µg/mL] | MIC [8] [µg/mL] | MIC [9] [µg/mL] | minimum growth inhibitory concentration (MIC) [10] [µg/mL] | MIC [11] [µg/mL] | MIC [12] [µg/mL] | MIC [13] [µg/mL] | MIC [4] [µg/mL] | MIC [5] [µg/mL] | MIC [10] [µg/mL] | minimum growth inhibitory concentration (MIC) [13] [µg/mL] | further results |
| --- | --- | --- | --- | --- | --- | --- | --- | --- | --- | --- | --- | --- | --- | --- | --- | --- | --- | --- |
| CC(N)C1CCN(c2c(F)cc3c(=O)c(C(=O)O)cn(C4CC4)c3c2F)C1 (single isomer, unassigned) [Example 1, 7-[3-(1-Aminoethyl)-1-pyrrolidinyl]-1-cyclopropyl-6,8-difluoro-1,4-dihydro-4-oxoquinoline-3-carboxylic acid] | ≤ 0.05 | 0.1 (≈ 0.265 µM) | 0.1 (≈ 0.265 µM) | 0.78 | 0.20 | 0.78 (≈ 2.07 µM) | 0.2 (≈ 0.53 µM) | 0.1 (≈ 0.265 µM) | 0.1 (≈ 0.265 µM) | 0.20 | ≤ 0.05 | 0.1 (≈ 0.265 µM) | 0.1 (≈ 0.265 µM) | – | – | – | – | – |
| NC1(C2CCN(c3c(F)cc4c(=O)c(C(=O)O)cn(C5CC5)c4c3F)C2)CC1 (stereo not shown) [Example 15] | ≤ 0.05 | 0.2 (≈ 0.514 µM) | 0.1 (≈ 0.257 µM) | – | – | 0.39 (≈ 1 µM) | 0.2 (≈ 0.514 µM) | ≤ 0.05 | ≤ 0.05 | – | ≤ 0.05 | 0.2 (≈ 0.514 µM) | ≤ 0.05 | 0.39 (≈ 1 µM) | 0.2 (≈ 0.514 µM) | 0.2 (≈ 0.514 µM) | – | – |
| 1-Cyclopropyl-6,8-difluoro-1,4-dihydro-7-[3-(2S)-pyrrolidinyl)-1-pyrrolidinyl)-1-pyrrolidinyl]-4-oxoquinoline-3-carboxylic acid [Example 17] | – | – | – | 0.39 | 0.20 | – | – | – | – | 0.10 | – | – | – | – | – | – | 0.10 | minimum growth inhibitory concentration (MIC) [1]: ≤ 0.05 µg/mL; minimum growth inhibitory concentration (MIC) [2]: 0.20 µg/mL; minimum growth inhibitory concentration (MIC) [3]: 0.10 µg/mL; minimum growth inhibitory concentration (MIC) [6]: 0.78 µg/mL; minimum growth inhibitory concentration (MIC) [7]: 0.39 µg/mL; minimum growth inhibitory concentration (MIC) [8]: ≤ 0.05 µg/mL; minimum growth inhibitory concentration (MIC) [9]: 0.10 µg/mL; minimum growth inhibitory concentration (MIC) [11]: ≤ 0.05 µg/mL; minimum growth inhibitory concentration (MIC) [12]: 0.10 µg/mL |
| CCC(N)C1CCN(c2c(F)cc3c(=O)c(C(=O)O)cn(C4CC4)c3c2F)C1 (stereo not shown) [Example 9, 7-[3-(1-Aminopropyl)-1-pyrrolidinyl]-1-cyclopropyl-6,8-difluoro-1,4-dihydro-4-oxoquinoline-3-carboxylic acid] | ≤ 0.05 | 0.1 (≈ 0.255 µM) | ≤ 0.05 | – | – | 0.39 (≈ 0.996 µM) | 0.1 (≈ 0.255 µM) | ≤ 0.05 | ≤ 0.05 | – | ≤ 0.05 | 0.1 (≈ 0.255 µM) | – | 0.78 (≈ 1.99 µM) | 0.2 (≈ 0.511 µM) | ≤ 0.05 | ≤ 0.05 | – |
| CNC(C)C1CCN(c2nc3c(cc2F)c(=O)c(C(=O)O)cn3C2CC2)C1 (stereo not shown) [Example 8] | ≤ 0.05 | 0.39 (≈ 1.04 µM) | 0.1 (≈ 0.267 µM) | – | – | 1.56 (≈ 4.17 µM) | 0.78 (≈ 2.08 µM) | 0.1 (≈ 0.267 µM) | 0.2 (≈ 0.534 µM) | – | ≤ 0.05 | 0.39 (≈ 1.04 µM) | 0.78 (≈ 2.08 µM) | 1.56 (≈ 4.17 µM) | 0.39 (≈ 1.04 µM) | 0.39 (≈ 1.04 µM) | – | – |
| CCn1cc(C(=O)O)c(=O)c2cc(F)c(N3CCC(C(C)(C)N)C3)c(F)c21 (stereo not shown) [Example 12, 7-[3-(1-amino-1-methyl)ethyl-1-pyrrolidinyl]-1-ethyl-6,8-difluoro-1,4-dihydro-4-oxoquinoline-3-carboxylic acid] | ≤ 0.05 | 0.39 (≈ 1.03 µM) | 0.2 (≈ 0.527 µM) | – | – | 1.56 (≈ 4.11 µM) | 0.39 (≈ 1.03 µM) | ≤ 0.05 | 0.1 (≈ 0.264 µM) | – | ≤ 0.05 | 0.1 (≈ 0.264 µM) | 0.1 (≈ 0.264 µM) | 1.56 (≈ 4.11 µM) | 0.39 (≈ 1.03 µM) | 0.39 (≈ 1.03 µM) | – | – |
| CCC(N)C1CCN(c2c(F)cc3c(=O)c(C(=O)O)cn(C4CC4)c3c2F)C1 (stereo not shown) [Example 22] | – | – | – | 0.39 | 0.20 | – | – | – | – | 0.10 | – | – | – | – | – | – | 0.20 | minimum growth inhibitory concentration (MIC) [1]: ≤ 0.05 µg/mL; minimum growth inhibitory concentration (MIC) [2]: 0.10 µg/mL; minimum growth inhibitory concentration (MIC) [3]: ≤ 0.05 µg/mL; minimum growth inhibitory concentration (MIC) [6]: 0.20 µg/mL; minimum growth inhibitory concentration (MIC) [7]: 0.20 µg/mL; minimum growth inhibitory concentration (MIC) [8]: ≤ 0.05 µg/mL; minimum growth inhibitory concentration (MIC) [9]: ≤ 0.05 µg/mL; minimum growth inhibitory concentration (MIC) [11]: ≤ 0.05 µg/mL; minimum growth inhibitory concentration (MIC) [12]: 0.20 µg/mL |
